Experimental data: PMC4487512 (Biochemical pharmacology, 2009)
Marks after values point to notes of the source that are not given here.

How the values were obtained:
[1] = test system: cryopreserved human hepatocytes; conditions: at 24 h
[2] = human, known in vivo clearance values; ref literature (citation not given); cited from earlier work
[3] = test system: cryopreserved human hepatocytes; conditions: for Depletion of the parent compound, HμREL device: human hepatocytes under flow, at 24 h; for HμREL clearance CLhurel: flow 4.5 μL/min/chip, 30,000 hepatocytes per chamber, 100 μL

Structure (SMILES): NC(=O)N1c2ccccc2C=Cc2ccccc21 [Carbamazepine, carbamazepine]
- Depletion of the parent compound, static culture system [1]: did not show significant depletion
- In vivo clearance [2]: 0.078 ± 0.03 L/h/kg
- Depletion of the parent compound, HμREL device [3]: did not show significant depletion

Structure (SMILES): Cn1c(=O)c2c(ncn2C)n(C)c1=O [Caffeine, caffeine]
- Depletion of the parent compound, static culture system [1]: did not show significant depletion
- HμREL clearance CLhurel [3]: 0.01^a μL/min/chip
- Depletion of the parent compound, HμREL device [3]: did not show significant depletion

Structure (SMILES): O=C1CC2(CCCC2)CC(=O)N1CCCCN1CCN(c2ncccn2)CC1 [Buspirone, buspirone]
- HμREL clearance CLhurel [3]: 3.13 μL/min/chip

Structure (SMILES): CC(C)(C)NC[C@H](O)COc1nsnc1N1CCOCC1 [Timolol, timolol]
- In vivo clearance [2]: 0.462 ± 0.072 L/h/kg
- HμREL clearance CLhurel [3]: 0.35 μL/min/chip

Structure (SMILES): CCCc1nn(C)c2c(=O)[nH]c(-c3cc(S(=O)(=O)N4CCN(C)CC4)ccc3OCC)nc12 [Sildenafil, sildenafil]
- In vivo clearance [2]: 0.36 ± 0.066 L/h/kg
- HμREL clearance CLhurel [3]: 1.13 μL/min/chip
